Counter-ions that a name gives are not always drawn.
Assays:
[1] = test system: mouse bladder cancer cell line MB49; assay: mouse orthotopic bladder cancer model; format: in vivo, C57 mice; settings: compared to mice firstly treated with cell vesicles then administered with Dox or HCPT; bladder infusion; bladders taken on day 12; FIGS. 7A and 7B
Method: Mouse bladder cancer cells are cultured with 10% of FBS 1640 basal medium until logarithm phase, and are resuspended with PBS into cell suspension with a cell concentration of 10^7/mL after being digested with trypsin. After C57 mice were anesthetized, 100 uL 0.1 mg/mL of polylysin solution are infused into mouse bladder using intravenous indwelling needle for pre-treatment for 20 min, and then 100 uL cell suspension are infused into the bladder after the polylysin solution is excreted, and cell suspension is excreted after holding for 1 h.
Preparing the cell vesicles with chemotherapy drugs wrapped therein: 100 uL chemotherapy drug (Dox or HCPT) are administered to 1 ml 1×10^7 mouse bladder cancer cells (1 mg/mL); 48 hours after administration of chemotherapy drugs, firstly centrifuging cell culture medium that contains apoptotic tumor cells at the rotational speed of 1300 rpm, 5000 rpm, respectively, each for 10 minutes and collecting a first supernatant; then centrifuging the first supernatant at the centrifugal force of 14000 g for 1 minute to remove cells and debris, and collecting a second supernatant; further centrifuging the second supernatant at the centrifugal force of 14000 g for 1 hour, then collecting precipitate to obtain cell vesicles with chemotherapy drugs wrapped therein. […]

[2] = test system: human breast cancer cells MCF-7; assay: excretion of doxorubicin drugs from MCF-7 cells, two-photon confocal microscope; format: cell-based; settings: 1 μg/ml doxorubicin for 4 hours; test group first incubated with 5×10^5 cell vesicles for 12 hours; FIG. 2
Method: Human breast cancer cell line MCF-7 is cultured in RPMI Medium 1640, so that the cell amount reaches 2×10^7/ml; human breast cancer cell line MCF-7 is exposed to UV radiation for 60 minutes; 18 hours after UV radiation, human breast cancer cell line MCF-7 starts apoptosis, which is observed under microscope; collecting cell vesicles from the above apoptotic tumor cells by centrifugation or filtration procedure, as described in Example 1;
1×10^5 normally cultured human breast cancer cells MCF-7 are planted in a confocal dish, and then 5×10^5 cell vesicles prepared above and derived from human breast cancer cell line MCF-7 are added into the confocal dish and incubated with MCF-7 for 12 hours, and used as a test group (i.e., MCF-7 cells+MPs); 1×10^5 human breast cancer cells MCF-7 without adding the cells vesicles are used as a control group (i.e., MCF-7 cells).
The test group and the control group are washed once with PBS respectively, and then a medium containing 1 μg/ml of doxorubicin drugs is added, 4 hours later, two groups are stabilized with 4% of paraformaldehyde for 20 minutes, the excretion of doxorubicin drugs from the human breast cancer cell MCF-7 in test group and control group is observed under the Two-photon confocal microscope.

[3] = test system: human breast cancer doxorubicin hydrochloride drug resistant strains ADR/MCF-7; assay: uptake of doxorubicin drugs by ADR/MCF-7, two-photon confocal microscope; format: cell-based; settings: 1 μg/ml doxorubicin hydrochloride for 4 hours, test group first incubated with cell vesicles for 12 hours, FIG. 3
Method: (§1) Cell vesicles derived from human breast cancer cell line MCF-7 are obtained in accordance with the method in Example 2;
(§2) 1×10^5 human breast cancer cells MCF-7, tumor repopulating cells MCF-7/TRC, human breast cancer doxorubicin hydrochloride drug resistant cells ADR/MCF-7 were planted in the confocal dish, respectively. Cell vesicles that prepared above and derived from human breast cancer cell lines MCF-7 are added to the dish containing the above three kinds of cells respectively, with amount of 5×10^5/dish, and incubated for 12 hours, used as a test group;
(§3) Human breast cancer cells MCF-7, tumor repopulating cells MCF-7/TRC, and human breast cancer doxorubicin hydrochloride drug resistant strains ADR/MCF-7 without addition of cell vesicles are used as a control group. […]

[4] = test system: human breast cancer cells MCF-7; assay: uptake of doxorubicin drugs by MCF-7, two-photon confocal microscope; format: cell-based; settings: 1 μg/ml doxorubicin hydrochloride for 4 hours, test group first incubated with cell vesicles for 12 hours, FIG. 3
Method: as §1, §2, §3

[5] = test system: tumor repopulating cells MCF-7/TRC; assay: uptake of doxorubicin drugs by MCF-7/TRC, two-photon confocal microscope; format: cell-based, human; settings: 1 μg/ml doxorubicin hydrochloride for 4 hours, test group first incubated with cell vesicles for 12 hours, FIG. 3
From the text: as §1
5000 MCF-7 human breast cancer cells are planted in the three-dimensional fibrous protein gel, and after 5 days culturing, a stem cell-like colony is formed, these cells are referred to as tumor repopulating cells, that is, MCF-7/TRC.
as §2, §3

CC[C@@]1(O)C(=O)OCc2c1cc1n(c2=O)Cc2cc3cc(O)ccc3nc2-1 [HCPT, hydroxycamptothecin]
treatment effects [1]: weaker treatment effects

COc1cccc2c1C(=O)c1c(O)c3c(c(O)c1C2=O)C[C@@](O)(C(=O)CO)C[C@@H]3O[C@H]1C[C@H](N)[C@H](O)[C@H](C)O1 [doxorubicin, doxorubicin hydrochloride]
doxorubicin drug quantity in nucleus [2]: drug quantity in nucleus is not high
excretion of doxorubicin drugs from MCF-7 cells [2]: excrete a great number of drugs outside of the cell membrane
drug content in nucleus [3]: less than that in control group MCF-7
doxorubicin drug content in the nucleus [4]: not high
treatment effects [1]: weaker treatment effects
drug content in nucleus [5]: less than that in control group MCF-7

Source: patent US20180071339A1, “COMBINATION OF PHARMACEUTICAL PREPARATIONS FOR TUMOR CHEMOTHERAPY” (HUBEI SOUNDNY BIOTECHNOLOGY CO., LTD., priority 2015, published 2018)
